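Following 48 hours of exposure in 96-well plates, responses at five concentrations were used to interpolate endpoints linearly. TGI: concentration producing complete growth inhibition.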
How the values were obtained:
Experiment in all cases: NCI tumour cell line growth inhibition, 48 h
[1] = system: 786-0 renal
[2] = system: A498 renal
[3] = system: ACHN renal
[4] = system: BT-549 breast
[5] = system: CAKI-1 renal
[6] = system: DU-145 prostate
[7] = system: EKVX NSCLC
[8] = system: HCT-116 colon
[9] = system: HL-60(TB) leukemia
[10] = system: HOP-92 NSCLC
[11] = system: HT29 colon
[12] = system: MALME-3M melanoma
[13] = system: MDA-MB-231 breast
[14] = system: MDA-N
[15] = system: MOLT-4 leukemia
[16] = system: NCI-H226 lung
[17] = system: NCI-H23 lung
[18] = system: NCI/ADR-RES ovarian
[19] = system: OVCAR-4 ovarian
[20] = system: OVCAR-5 ovarian
[21] = system: PC-3 prostate
[22] = system: SF-268 CNS
[23] = system: SF-295 CNS
[24] = system: SF-539 CNS
[25] = system: SK-MEL-5 melanoma
[26] = system: SK-OV-3 ovarian
[27] = system: TK-10 renal
[28] = system: U251 CNS
[29] = system: UACC-62 melanoma
[30] = system: A549 NSCLC
[31] = system: CCRF-CEM leukemia
[32] = system: COLO 205 colon
[33] = system: HCC-2998 colon
[34] = system: HCT-15 colon
[35] = system: HOP-62 NSCLC
[36] = system: HS 578T breast
[37] = system: IGROV1 ovarian
[38] = system: K-562 leukemia
[39] = system: KM12 colon
[40] = system: LOX IMVI melanoma
[41] = system: M14 melanoma
[42] = system: MCF7 breast
[43] = system: MDA-MB-435
[44] = system: NCI-H460 lung
[45] = system: OVCAR-3 ovarian
[46] = system: OVCAR-8 ovarian
[47] = system: RPMI-8226 leukemia
[48] = system: RXF 393 renal
[49] = system: SK-MEL-2 melanoma
[50] = system: SK-MEL-28 melanoma
[51] = system: SN12C renal
[52] = system: SNB-19 CNS
[53] = system: SNB-75 CNS
[54] = system: SR leukemia
[55] = system: SW-620 colon
[56] = system: T-47D breast
[57] = system: UO-31 renal

Question: How did the TGI [1] turn out when `CN(CCNC(=O)c1cn(C)c2c1ccc1cc(Cl)c(Cl)cc12)CCNC(=O)c1cn(C)c2c1ccc1cc(Cl)c(Cl)cc12` was run?
Answer: 3.28 µM

Question: What about the TGI [2] of the same molecule?
Answer: 63.2 µM

Question: What about the TGI [3] of the same molecule?
Answer: 3.73 µM

Question: And the TGI [4]?
Answer: > 75.2 µM

Question: And the TGI [5]?
Answer: > 100 µM

Question: What about the TGI [6] of the same molecule?
Answer: 3.43 µM

Question: And the TGI [7]?
Answer: 10.9 µM

Question: What about the TGI [8] of the same molecule?
Answer: 3.2 µM

Question: What about the TGI [9] of the same molecule?
Answer: 4.23 µM

Question: What about the TGI [10] of the same molecule?
Answer: 12.1 µM

Question: And the TGI [11]?
Answer: 3.41 µM

Question: What about the TGI [12] of the same molecule?
Answer: 24.2 µM

Question: And the TGI [13]?
Answer: 3.25 µM

Question: And the TGI [14]?
Answer: 3.25 µM

Question: And the TGI [15]?
Answer: 0.36 µM

Question: And the TGI [16]?
Answer: 96 µM

Question: And the TGI [17]?
Answer: 22 µM

Question: And the TGI [18]?
Answer: > 100 µM

Question: And the TGI [19]?
Answer: 5.67 µM

Question: And the TGI [20]?
Answer: 9.98 µM

Question: And the TGI [21]?
Answer: 3.26 µM

Question: What about the TGI [22] of the same molecule?
Answer: 15.5 µM

Question: What about the TGI [23] of the same molecule?
Answer: 6.2 µM

Question: And the TGI [24]?
Answer: 16 µM

Question: What about the TGI [25] of the same molecule?
Answer: 35.2 µM

Question: What about the TGI [26] of the same molecule?
Answer: 4.59 µM

Question: What about the TGI [27] of the same molecule?
Answer: > 100 µM

Question: What about the TGI [28] of the same molecule?
Answer: 3.19 µM

Question: What about the TGI [29] of the same molecule?
Answer: 4.88 µM

Question: For `OCCN(/N=C\c1ccc2ccccc2c1)C1=NCCN1`, which TGI [1] is on record?
Answer: 64.4 µM

Question: And the TGI [30]?
Answer: > 100 µM

Question: And the TGI [3]?
Answer: > 100 µM

Question: What about the TGI [4] of the same molecule?
Answer: > 100 µM

Question: And the TGI [31]?
Answer: 71.4 µM

Question: What about the TGI [32] of the same molecule?
Answer: 34.8 µM

Question: What about the TGI [6] of the same molecule?
Answer: > 100 µM

Question: What about the TGI [7] of the same molecule?
Answer: > 100 µM

Question: And the TGI [33]?
Answer: 32.6 µM

Question: What about the TGI [8] of the same molecule?
Answer: 79.9 µM

Question: And the TGI [34]?
Answer: > 100 µM

Question: And the TGI [9]?
Answer: 43.6 µM

Question: And the TGI [35]?
Answer: > 100 µM

Question: What about the TGI [10] of the same molecule?
Answer: 53.1 µM

Question: And the TGI [36]?
Answer: > 100 µM

Question: And the TGI [11]?
Answer: 89 µM

Question: And the TGI [37]?
Answer: > 100 µM

Question: What about the TGI [38] of the same molecule?
Answer: 30.4 µM

Question: And the TGI [39]?
Answer: > 100 µM

Question: What about the TGI [40] of the same molecule?
Answer: 30.6 µM

Question: And the TGI [41]?
Answer: 35 µM

Question: And the TGI [12]?
Answer: 29.6 µM

Question: What about the TGI [42] of the same molecule?
Answer: > 100 µM

Question: And the TGI [13]?
Answer: 33.4 µM

Question: What about the TGI [43] of the same molecule?
Answer: 32.7 µM

Question: And the TGI [14]?
Answer: 32.4 µM

Question: What about the TGI [15] of the same molecule?
Answer: 44.5 µM

Question: What about the TGI [16] of the same molecule?
Answer: 36.1 µM

Question: What about the TGI [17] of the same molecule?
Answer: > 100 µM

Question: What about the TGI [44] of the same molecule?
Answer: > 100 µM

Question: And the TGI [45]?
Answer: > 100 µM

Question: And the TGI [19]?
Answer: > 100 µM

Question: And the TGI [20]?
Answer: 72.2 µM

Question: And the TGI [46]?
Answer: > 100 µM

Question: And the TGI [21]?
Answer: > 100 µM

Question: What about the TGI [47] of the same molecule?
Answer: 60.8 µM

Question: And the TGI [48]?
Answer: 36.1 µM

Question: What about the TGI [22] of the same molecule?
Answer: > 100 µM

Question: What about the TGI [23] of the same molecule?
Answer: > 100 µM

Question: What about the TGI [24] of the same molecule?
Answer: 43.6 µM

Question: And the TGI [49]?
Answer: 42.6 µM

Question: What about the TGI [50] of the same molecule?
Answer: 35.3 µM

Question: And the TGI [25]?
Answer: 33.1 µM

Question: And the TGI [26]?
Answer: > 100 µM

Question: And the TGI [51]?
Answer: > 100 µM

Question: And the TGI [52]?
Answer: > 100 µM

Question: What about the TGI [53] of the same molecule?
Answer: > 100 µM

Question: And the TGI [54]?
Answer: 55.9 µM

Question: What about the TGI [55] of the same molecule?
Answer: 55.6 µM

Question: What about the TGI [56] of the same molecule?
Answer: > 100 µM

Question: What about the TGI [27] of the same molecule?
Answer: > 100 µM

Question: What about the TGI [28] of the same molecule?
Answer: 73.8 µM

Question: And the TGI [29]?
Answer: 48.6 µM

Question: What about the TGI [57] of the same molecule?
Answer: > 100 µM

Source: PubChem BioAssay (NCI)
